Like-named read-outs stand apart in the source and are kept apart here. Where no end group is shown, it is not given here.
Legend:
Assay type in all cases: cell-based
[1] = tested on: Pseudomonas aeruginosa ATCC 27853; assay: microbe, parasite or virus in culture; details: ATCC 27853, 6 h
Procedure: (§1) The standard bacterial strains used for antimicrobial activity assays include Staphylococcus aureus ATCC (American Type Culture Collection, Manassas, VA, USA) 6538, Bacillus cereus ATCC 10876, Enterococcus faecalis ATCC 29212, Streptococcus […] 27956, Streptococcus dysgalactiae ATCC 27957, Streptococcus equi subsp. zooepidemicus ATCC 43079, Escherichia coli ATCC 25922, and Pseudomonas aeruginosa ATCC 27853. Most bacterial strains were cultured in LB medium except for E. faecalis and streptococci, which were cultivated in brain heart infusion (BHI) broth (BD Bioscience). […] Experiments were conducted in triplicate.

[2] = tested on: Streptococcus agalactiae ATCC 27956; assay: microbe, parasite or virus in culture; details: ATCC 27956, 6 h
Procedure: as §1

[3] = tested on: Streptococcus equi subsp. zooepidemicus ATCC 43079; assay: microbe, parasite or virus in culture; details: ATCC 43079, 6 h
Procedure: as §1

[4] = tested on: Bacillus cereus ATCC 10876; assay: microbe, parasite or virus in culture; details: ATCC 10876, 6 h
Procedure: as §1

[5] = tested on: Enterococcus faecalis ATCC 29212; assay: microbe, parasite or virus in culture; details: ATCC 29212, 6 h
Procedure: as §1

[6] = tested on: Staphylococcus aureus ATCC 6538; assay: microbe, parasite or virus in culture; details: ATCC 6538, 6 h
Procedure: as §1

[7] = tested on: Streptococcus dysgalactiae ATCC 27957; assay: microbe, parasite or virus in culture; details: ATCC 27957, 6 h
Procedure: as §1

[8] = tested on: eight standard bacterial strains
Procedure: as §1

[9] = only some Gram-negative and Gram-positive strains, range stated for the group of peptides

With “RRRPRPPYLPRPRPPPFFPPRLPPRIPPGFPPRFP [PR-35]” the “Minimal inhibitory concentration, Pseudomonas aeruginosa” value [1] was > 40 (9.5) μg/mL, the “Minimal inhibitory concentration, Streptococcus agalactiae” value [2] was > 40 (9.5) μg/mL and the “Minimal inhibitory concentration, Streptococcus equi subsp. zooepidemicus” value [3] was > 40 (9.5) μg/mL. For the same sequence, the “Minimal inhibitory concentration, Bacillus cereus” value [4] was > 40 (9.5) μg/mL, the “Minimal inhibitory concentration, Enterococcus faecalis” value [5] was > 40 (9.5) μg/mL and the “Minimal inhibitory concentration, Staphylococcus aureus” value [6] was > 40 (9.5) μg/mL. For the same sequence, the “Minimal inhibitory concentration, Streptococcus dysgalactiae” value [7] was > 40 (9.5) μg/mL.
With GGLRSLGRKILRAWKKYGPIIVPIIRIG [BMAP-28] the “Minimal inhibitory concentration, Pseudomonas aeruginosa” value [1] was 9 (2.9) μg/mL, the “Minimal inhibitory concentration, Streptococcus agalactiae” value [2] was > 40 (12.6) μg/mL and the “Minimal inhibitory concentration, Streptococcus equi subsp. zooepidemicus” value [3] was > 40 (12.6) μg/mL. The “Minimal inhibitory concentration, Bacillus cereus” value [4] was 7 (2.2) μg/mL, the “Minimal inhibitory concentration, Enterococcus faecalis” value [5] was 15 (4.8) μg/mL and the “Minimal inhibitory concentration, Staphylococcus aureus” value [6] was 5 (1.6) μg/mL. The “Minimal inhibitory concentration, Streptococcus dysgalactiae” value [7] was > 40 (12.6) μg/mL and the “MICs, range over the strains against which active” value (“MICs, range over the strains” below) [8, 9] was 0.7 to 18.8 µM.
In the case of SKFFRKARKKLGKGLQKIKNVLRKY [ΔHg-CATH], the “Minimal inhibitory concentration, Pseudomonas aeruginosa” value [1] is reported as 5 (1.7) μg/mL, the “Minimal inhibitory concentration, Streptococcus agalactiae” value [2] is reported as > 40 (13.2) μg/mL and the “Minimal inhibitory concentration, Streptococcus equi subsp. zooepidemicus” value [3] is reported as 15 (4.9) μg/mL. The “Minimal inhibitory concentration, Bacillus cereus” value [4] was > 40 (13.2) μg/mL, the “Minimal inhibitory concentration, Enterococcus faecalis” value [5] was > 40 (13.2) μg/mL and the “Minimal inhibitory concentration, Staphylococcus aureus” value [6] was > 40 (13.2) μg/mL. For the same sequence, the “Minimal inhibitory concentration, Streptococcus dysgalactiae” value [7] was 15 (4.9) μg/mL and the “MICs, range over the strains” value [8] was 0.7 to 18.8 µM.
In the case of “GRFRRLRKKTRKRLKKIGKVLKWIPPIVGSIPLGCG [PMAP-36]”, the “Minimal inhibitory concentration, Pseudomonas aeruginosa” value [1] is reported as 8 (1.9) μg/mL, the “Minimal inhibitory concentration, Streptococcus agalactiae” value [2] is reported as > 40 (9.6) μg/mL and the “Minimal inhibitory concentration, Streptococcus equi subsp. zooepidemicus” value [3] is reported as > 40 (9.6) μg/mL. The “Minimal inhibitory concentration, Bacillus cereus” value [4] was 28 (6.7) μg/mL, the “Minimal inhibitory concentration, Enterococcus faecalis” value [5] was > 40 (9.6) μg/mL and the “Minimal inhibitory concentration, Staphylococcus aureus” value [6] was 9 (2.2) μg/mL. For the same sequence, the “Minimal inhibitory concentration, Streptococcus dysgalactiae” value [7] was > 40 (9.6) μg/mL.
For “ILGRLRDLLRRGGRKIGQGLERIGQRIQGFFSNREPMEES [HA-CATH]”, the “Minimal inhibitory concentration, Pseudomonas aeruginosa” value [1] was > 40 (8.6) μg/mL, the “Minimal inhibitory concentration, Streptococcus agalactiae” value [2] was > 40 (8.6) μg/mL and the “Minimal inhibitory concentration, Streptococcus equi subsp. zooepidemicus” value [3] was > 40 (8.6) μg/mL. For the same sequence, the “Minimal inhibitory concentration, Bacillus cereus” value [4] was 25 (5.4) μg/mL, the “Minimal inhibitory concentration, Enterococcus faecalis” value [5] was > 40 (8.6) μg/mL and the “Minimal inhibitory concentration, Staphylococcus aureus” value [6] was 26 (5.6) μg/mL. The “Minimal inhibitory concentration, Streptococcus dysgalactiae” value [7] was > 40 (8.6) μg/mL and the “MICs, range over the strains” value [8, 9] was 0.7 to 18.8 µM.
For “VKRTKRGARRGLTKVLKKIFGSIVKKAVSKGV [ΔModoCath1]”, the “Minimal inhibitory concentration, Pseudomonas aeruginosa” value [1] was 2.9 µM, the “Minimal inhibitory concentration, Enterococcus faecalis” value [5] was 2.9 µM and the “Minimal inhibitory concentration, Staphylococcus aureus” value [6] was 11 (3.2) μg/mL. The “MICs, range over the strains” value [8, 9] was 0.7 to 18.8 µM.
For “VRRSKRGIKVPSFVKKVLKDVVSESIS [ΔModoCath6]”, the “Minimal inhibitory concentration, Pseudomonas aeruginosa” value [1] was > 40 (13.2) μg/mL, the “Minimal inhibitory concentration, Streptococcus agalactiae” value [2] was > 40 (13.2) μg/mL and the “Minimal inhibitory concentration, Streptococcus equi subsp. zooepidemicus” value [3] was > 40 (13.2) μg/mL. For the same sequence, the “Minimal inhibitory concentration, Bacillus cereus” value [4] was > 40 (13.2) μg/mL, the “Minimal inhibitory concentration, Enterococcus faecalis” value [5] was > 40 (13.2) μg/mL and the “Minimal inhibitory concentration, Staphylococcus aureus” value [6] was > 40 (13.2) μg/mL. For the same sequence, the “Minimal inhibitory concentration, Streptococcus dysgalactiae” value [7] was > 40 (13.2) μg/mL.
“WYQLIRTFGNLIHQKYRKLLEAYRKLRD [ΔModoCath5]” was tested, and the “Minimal inhibitory concentration, Pseudomonas aeruginosa” value [1] was > 40 (11.0) μg/mL, the “Minimal inhibitory concentration, Streptococcus agalactiae” value [2] was > 40 (11.0) μg/mL and the “Minimal inhibitory concentration, Streptococcus equi subsp. zooepidemicus” value [3] was > 40 (11.0) μg/mL. For the same sequence, the “Minimal inhibitory concentration, Bacillus cereus” value [4] was 26 (7.3) μg/mL, the “Minimal inhibitory concentration, Enterococcus faecalis” value [5] was 10 (2.8) μg/mL and the “Minimal inhibitory concentration, Staphylococcus aureus” value [6] was 6 (1.7) μg/mL. The “Minimal inhibitory concentration, Streptococcus dysgalactiae” value [7] was > 40 (11.0) μg/mL.

Reference: paper PMC11566078, “Bactericidal activities and biochemical features of 16 antimicrobial peptides against bovine-mastitis causative pathogens” (Veterinary Research, 2024)
